From US6004950A, “2-aminopyridines as inhibitors of cyclooxygenase-2” (Merck Frosst Canada, Inc., priority 1998, dated 1999)
Read-outs that look alike come from different tables or passages of the source.

Legend:
COX-2 [1] = biological target: T1, COX-2 (Homo sapiens, UniProt P35354); assay: Whole cell assay for COX-2 using CHO transfected cell line CHO[hCOX-2], inhibition of PGE2 synthesis; format: cell-based
T1 construct: incubation of human whole blood with LPS, which induces COX-2; endogenous in cells; host or cells: heparinized fresh whole blood of human volunteers, incubated with LPS for 24 h
T1 sequence (P35354 18-604): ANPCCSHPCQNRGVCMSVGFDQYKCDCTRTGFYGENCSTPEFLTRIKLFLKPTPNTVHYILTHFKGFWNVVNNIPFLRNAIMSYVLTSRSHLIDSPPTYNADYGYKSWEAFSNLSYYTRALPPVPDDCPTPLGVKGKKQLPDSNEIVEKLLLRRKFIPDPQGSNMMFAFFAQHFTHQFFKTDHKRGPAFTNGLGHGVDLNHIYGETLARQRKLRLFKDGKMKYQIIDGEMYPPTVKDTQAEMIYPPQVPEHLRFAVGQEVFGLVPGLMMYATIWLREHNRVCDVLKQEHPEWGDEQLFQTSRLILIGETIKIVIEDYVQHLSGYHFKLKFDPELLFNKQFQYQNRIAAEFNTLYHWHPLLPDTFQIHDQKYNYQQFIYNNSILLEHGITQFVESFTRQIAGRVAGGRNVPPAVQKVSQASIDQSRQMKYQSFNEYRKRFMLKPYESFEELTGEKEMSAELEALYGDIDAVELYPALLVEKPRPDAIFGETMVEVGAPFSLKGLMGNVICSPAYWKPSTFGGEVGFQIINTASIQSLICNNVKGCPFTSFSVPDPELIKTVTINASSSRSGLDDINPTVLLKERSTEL

COX-2 [2] = biological target: T1, COX-2; assay: Human whole blood assay, COX-2 (LPS-induced PGE2 production); format: cell-based
Excerpt: As well, platelets in whole blood contain a large amount of the COX-1 enzyme. Immediately following blood clotting, platelets are activated through a thrombin-mediated mechanism. This reaction results in the production of thromboxane B2 (TxB2) via activation of COX-1. Thus, the effect of test compounds on TxB2 levels following blood clotting can be examined and used as an index for COX-1 activity. Therefore, the degree of selectivity by the test compound can be determined by measuring the levels of PGE2 after LPS induction (COX-2) and TxB2 following blood clotting (COX-1) in the same assay.
A. COX-2 (LPS-induced PGE2 production)
Fresh blood is collected in heparinized tubes by venipuncture from both male and female volunteers. The subjects have no apparent inflammatory conditions and have not taken any NSAIDs for at least 7 days prior to blood collection. Plasma is immediately obtained from a 2 mL blood aliquot to use as blank (basal levels of PGE2).

COX-1 = COX-1 (Homo sapiens, UniProt P23219); assay: Assay of COX-1 activity from U937 cell microsomes; format: biochemical; set-up: Assay of COX-1 Activity from U937 cell microsomes; endogenous in cells; host or cells: U937 cells, 100,000×g microsomal pellet
Method: Assay of COX-1 Activity from U937 cell microsomes
U 937 cells are pelleted by centrifugation at 500×g for 5 min and washed once with phosphate-buffered saline and repelleted. Cells are resuspended in homogenization buffer consisting of 0.1 M Tris-HCl, pH 7.4, 10 mM EDTA, 2 μg/ml leupeptin, 2 μg/ml soybean trypsin inhibitor, 2 μg/ml aprotinin and 1 mM phenyl methyl sulfonyl fluoride. The cell suspension is sonicated 4 times for 10 sec and is centrifuged at 10,000×g for 10 min at 4° C. The supernatant is centrifuged at 100,000×g for 1 hr at 4° C. The 100,000×g microsomal pellet is resuspended in 0.1 M Tris-HCl, pH 7.4, 10 mM EDTA to approximately 7 mg protein/ml and stored at -80° C.
Microsomal preparations are thawed immediately prior to use, subjected to a brief sonication, and then diluted to a protein concentration of 125 μg/ml in 0.1 M Tris-HCl buffer, pH 7.4 containing 10 mM EDTA, 0.5 mM phenol, 1 mM reduced glutathione and 1 μM hematin. Assays are performed in duplicate in a final volume of 250 μl. Initially, 5 μl of DMSO vehicle or drug in DMSO are added to 20 μl of 0.1 M Tris-HCl buffer, pH 7.4 containing 10 mM EDTA in wells of a 96-deepwell polypropylene titre plate. 200 μl of the microsomal preparation are then added and pre-incubated for 15 min at room temperature before addition of 25 μl of […] arachidonic acid in […] Tris-HCl and 10 mM EDTA, pH 7.4. Samples are incubated for 40 min at room temperature and the reaction is stopped by the addition of 25 μl of 1 N HCl. Samples are neutralized with 25 μl of 1 N NaOH prior to quantitation of PGE2 content by radioimmunoassay (Dupont-NEN or Amersham assay kits). Cyclooxygenase activity is defined as the difference between PGE2 levels in samples incubated in the presence of arachidonic acid and ethanol vehicle.
In the assay, inhibition is determined by measuring the amount of prostaglandin E2 (PGE2) synthesized in the presence of arachidonic acid, cyclooxygenase-1 or cyclooxygenase-2 and a putative inhibitor.

[3] = U937 cell microsomes, PGE2, read-out: COX-1 (IC50 mM) U-937
[4] = CHO[hCOX-2] cells, 10 μM AA, PGE2, read-out: COX-2 (IC50 mM) CHO
[5] = human whole blood, LPS-induced PGE2, 24 h, read-out: COX-2 (IC50 mM) HWB

COX-1, sequence (P23219 24-599): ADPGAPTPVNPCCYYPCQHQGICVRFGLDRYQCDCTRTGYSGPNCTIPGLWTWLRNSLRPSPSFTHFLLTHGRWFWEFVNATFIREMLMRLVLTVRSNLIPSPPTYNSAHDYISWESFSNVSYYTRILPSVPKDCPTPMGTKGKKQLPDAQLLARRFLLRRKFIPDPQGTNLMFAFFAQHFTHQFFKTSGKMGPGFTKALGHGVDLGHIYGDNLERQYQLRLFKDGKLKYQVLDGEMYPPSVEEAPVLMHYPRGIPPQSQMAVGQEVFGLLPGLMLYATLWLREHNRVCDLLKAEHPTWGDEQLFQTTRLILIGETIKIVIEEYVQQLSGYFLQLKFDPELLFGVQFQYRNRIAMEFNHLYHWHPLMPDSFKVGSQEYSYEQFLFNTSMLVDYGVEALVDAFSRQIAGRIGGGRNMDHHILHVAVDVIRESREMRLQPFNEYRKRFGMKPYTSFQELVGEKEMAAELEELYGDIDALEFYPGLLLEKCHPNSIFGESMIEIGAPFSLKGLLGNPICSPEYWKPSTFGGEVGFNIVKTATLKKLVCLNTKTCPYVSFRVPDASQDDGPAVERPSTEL

IC50 (COX-2 [1]) | IC50 (COX-2 [2]) | SMILES | IC50 (COX-1; [3]) | IC50 (COX-1) | IC50 (COX-2 [1]; [4]) | IC50 (COX-2 [2]; [5])
0.03 µM | 0.0005 mM | CS(=O)(=O)c1ccc(-c2cc(C(F)(F)F)cnc2N2CCC[C@H](CO)C2)cc1 (single isomer, unassigned) [Example 14, (-)-3-(4-Methylsulfonyl)phenyl-2-(3-hydroxymethyl)piperidin-1-yl-5-trifluoromethylpyridine] | 0.003 to 0.01 mM | – | – | –
0.03 µM | 0.0266 mM | CS(=O)(=O)c1ccc(-c2cc(C(F)(F)F)cnc2N2CCC[C@@H](CO)C2)cc1 (single isomer, unassigned) [Example 15, (+)-3-(4-Methylsulfonyl)phenyl-2-(3-hydroxymethyl)piperidin-1-yl-5-trifluoromethylpyridine] | > 0.01 mM | – | – | –
– | – | CS(=O)(=O)c1ccc(-c2cc(Cl)cnc2N2CCCCC2)cc1 [Example 3, 5-Chloro-3-(4-methylsulfonyl)phenyl-2-piperidin-1-ylpyridine] | 0.001 to 0.003 mM | – | – | –
– | – | CS(=O)(=O)c1ccc(-c2cccnc2N2CCCCC2)cc1 [Example 4, 3-(4-Methylsulfonyl)phenyl-2-piperidin-1-ylpyridine] | > 0.05 mM | – | 0.13 µM | 0.006 mM
– | – | CS(=O)(=O)c1ccc(-c2cc(C(F)(F)F)cnc2N2CC=CCC2)cc1 [Example 5, 3-(4-Methylsulfonyl)phenyl-2-(1,2,3,6-tetrahydropyridinyl)-5-trifluoromethylpyridine] | 0.001 to 0.003 mM | – | 0.002 µM | 0.001 mM
– | – | CS(=O)(=O)c1ccc(-c2cc(C(F)(F)F)cnc2N2CCCCCC2)cc1 [Example 6, 2-(Homopiperidin-1-yl)-3-(4-methylsulfonyl)phenyl-5-trifluoromethylpyridine] | 0.01 mM | – | 0.004 µM | 0.006 mM
– | – | CS(=O)(=O)c1ccc(-c2cc(C(F)(F)F)cnc2N2CCC[C@H]2CO)cc1 [Example 7, 3-(4-Methylsulfonyl)phenyl-2-((2S)-2-hydroxymethyl)pyrrolidin-1-yl-5-trifluoromethylpyridine] | 0.003 to 0.01 mM | – | 0.04 µM | 0.0002 mM
– | – | CS(=O)(=O)c1ccc(-c2cc(C(F)(F)F)cnc2N2CCC[C@@H]2CO)cc1 [Example 8, 3-(4-Methylsulfonyl)phenyl-2-((2R)-2-hydroxymethyl)pyrrolidin-1-yl-5-trifluoromethylpyridine] | > 0.01 mM | – | > 5 µM | > 0.033 mM
– | – | CS(=O)(=O)c1ccc(-c2cc(Cl)cnc2N2CCC[C@H]2CO)cc1 [Example 9, 5-Chloro-3-(4-methylsulfonyl)phenyl-2-((2S)-2-hydroxymethyl)pyrrolidin-1-ylpyridine] | 0.001 to 0.003 mM | – | 0.03 µM | 0.0001 mM
– | – | COC[C@@H]1CCCN1c1ncc(C(F)(F)F)cc1-c1ccc(S(C)(=O)=O)cc1 [Example 10, 3-(4-Methylsulfonyl)phenyl-2-((2S)-2-methoxymethyl)pyrrolidin-1-yl-5-trifluoromethylpyridine] | 0.003 to 0.01 mM | – | 0.09 µM | 0.0031 mM
– | – | CC(=O)OC[C@@H]1CCCN1c1ncc(C(F)(F)F)cc1-c1ccc(S(C)(=O)=O)cc1 [Example 11, 3-(4-Methylsulfonyl)phenyl-2-((2S)-2-acetoxymethyl)pyrrolidin-1-yl-5-trifluoromethylpyridine] | > 0.01 mM | – | 0.07 µM | < 0.0004 mM
– | – | COC[C@@H]1CCCN1c1ncc(Cl)cc1-c1ccc(S(C)(=O)=O)cc1 [Example 12, 5-Chloro-3-(4-methylsulfonyl)phenyl-2-((2S)-2-methoxymethyl)pyrrolidin-1-ylpyridine] | 0.003 to 0.01 mM | – | – | –
– | – | CS(=O)(=O)c1ccc(-c2cc(C(F)(F)F)cnc2N2CCCCC2CO)cc1 (stereo not drawn) [Example 13, 3-(4-Methylsulfonyl)phenyl-2-(2-hydroxymethyl)piperidin-1-yl-5-trifluoromethylpyridine] | 0.01 mM | – | 0.1 µM | 0.0027 mM
– | – | CS(=O)(=O)c1ccc(-c2cc(Cl)cnc2N2CCCC(CO)C2)cc1 (stereo not drawn) [Example 16, 5-Chloro-3-(4-methylsulfonyl)phenyl-2-(3-hydroxymethyl)piperidin-1-ylpyridine] | > 0.01 mM | – | – | –
– | – | CC1(CO)CCCN(c2ncc(C(F)(F)F)cc2-c2ccc(S(C)(=O)=O)cc2)C1 (stereo not drawn) [Example 17, 3-(4-Methylsulfonyl)phenyl-2-(3-hydroxymethyl-3-methyl)piperidin-1-yl-5-trifluoromethylpyridine] | > 0.01 mM | – | 0.4 µM | 0.0053 mM
– | – | CS(=O)(=O)c1ccc(-c2cc(C(F)(F)F)cnc2N2CCCCC(CO)C2)cc1 (stereo not drawn) [Example 18, 3-(4-Methylsulfonyl)phenyl-2-(3-hydroxymethyl)homopiperidin-1-yl-5-trifluoromethylpyridine] | > 0.01 mM | – | 0.08 µM | 0.0234 mM
– | – | CS(=O)(=O)c1ccc(-c2cc(C(F)(F)F)cnc2N2CCCCC2CCO)cc1 (stereo not drawn) [Example 19, 3-(4-Methylsulfonyl)phenyl-2-(2-(2-hydroxyethyl))piperidin-1-yl-5-trifluoromethylpyridine] | > 0.01 mM | – | 0.92 µM | 0.0032 mM
– | – | CS(=O)(=O)c1ccc(-c2cc(C(F)(F)F)cnc2N2CCC(=O)CC2)cc1 [Example 20, 3-(4-Methylsulfonyl)phenyl-2-(4-oxo)piperidin-1-yl-5-trifluoromethylpyridine] | > 0.01 mM | – | 0.09 µM | 0.0104 mM
– | – | CS(=O)(=O)c1ccc(-c2cc(C(F)(F)F)cnc2N2CCCC(=O)C2)cc1 [Example 21, 3-(4-Methylsulfonyl)phenyl-2-(3-oxo)piperidin-1-yl-5-trifluoromethylpyridine] | > 0.01 mM | – | 0.11 µM | 0.0053 mM
– | – | CS(=O)(=O)c1ccc(-c2cc(C(F)(F)F)cnc2N2CCC(O)CC2)cc1 [Example 22, 3-(4-Methylsulfonyl)phenyl-2-(4-hydroxy)piperidin-1-yl-5-trifluoromethylpyridine] | > 0.01 mM | – | 0.03 µM | 0.0108 mM
– | – | CS(=O)(=O)c1ccc(-c2cc(C(F)(F)F)cnc2N2CCCC(O)C2)cc1 (stereo not drawn) [Example 23, 3-(4-Methylsulfonyl)phenyl-2-(3-hydroxy)piperidin-1-yl-5-trifluoromethylpyridine] | – | > 0.01 mM | 0.03 µM | 0.0075 mM

SMILES | IC50 (COX-2 [1]) | IC50 (COX-2 [2]) | IC50 (COX-1; [3]) | IC50 (COX-1) | IC50 (COX-2 [1]; [4]) | IC50 (COX-2 [2]; [5])
CS(=O)(=O)c1ccc(-c2cc(C(F)(F)F)cnc2N2CCCC2)cc1 [Example 1, 3-(4-Methylsulfonyl)phenyl-2-pyrrolidin-1-yl-5-trifluoromethylpyridine] | 0.02 µM | 0.0097 mM | – | > 0.01 mM | – | –
